Measurements published in patent US20100197586A1, “USE OF SECRETIN AND OPTIONALLY URODILATIN AS THERAPEUTIC AGENTS” (priority 2007, published 2010).
Where no end group is shown, it is not given here.

How the values were obtained:
HCMV strain AD169 = assay: HCMV plaque assay in MRC-5 cells; settings: for inhibition of HCMV plaque formation as compared to the virus control experiment: 10 micrograms per ml, MRC-5 cells, 7-10 days
[1] = tested on: hepatitis B virus (HBV) ayw strain; assay: HBV experimental assay system (HepG2-2.2.15, TaqMan PCR of HBV DNA); type: cell-based; settings: 10 micrograms per ml; HepG2-2.2.15, six days; combination 0.95 mole peptide 1 and 1.05 mole peptide 2
Description: HepG2-2.2.15 is a stable cell line containing the hepatitis B virus (HBV) ayw strain genome (ATCC Cat. No. CRL-11997). Antiviral compounds blocking any late step of viral replication such as transcription, translation, pregenome encapsidation, reverse transcription, particle assembly and release can be identified and characterized using this cell line. In this assay, an active compound will reduce the production of secreted HBV from cells, measured by utilizing real time quantitative PCR (TaqMan) assay to directly and accurately measure HBV DNA copies.
HepG2-2.2.15 cells were plated in 96-well microtiter plates. After 16-24 hours the confluent monolayer of HepG2-2.2.15 cells was washed and the medium was replaced with complete medium containing test peptides—10 micrograms per ml—in duplicate. […] Six days following the initial administration of the peptides, the cell culture supernatants was collected, treated with pronase and DNAse and then used in a real-time quantitative TaqMan PCR assay. The PCR-amplified HBV DNA was detected in real-time by monitoring increases in fluorescence signals that result from the exonucleolytic degradation of a quenched fluorescence probe molecule that hybridizes to the amplified HBV DNA. […] Antiviral activity was calculated from the reduction in HBV DNA levels (% virus control). […]

Interleukin-2 (IL-2) = assay: Th1/Th2 cytokine profiling assay: IL-2; type: cell-based, mouse; settings: 10 micrograms per ml, 72 hours
Interleukin-4 (IL-4) = assay: Th1/Th2 cytokine profiling assay: IL-4; type: cell-based, mouse; settings: 10 micrograms per ml, Ovalbumin-restimulated spleen cells, 72 hours
Interferon-γ (IFN-γ) = assay: Th1/Th2 cytokine profiling assay: IFN-γ; type: cell-based, mouse; settings: 10 micrograms per ml; Ovalbumin-restimulated spleen cells, 72 hours; combination 0.95 mole peptide 1 and 1.05 mole peptide 2
[2] = tested on: Tumor Necrosis Factor-α (TNF-α); assay: Th1/Th2 cytokine profiling assay: TNF-α; type: cell-based, mouse; settings: 10 micrograms per ml; Ovalbumin-restimulated spleen cells, 72 hours; combination 0.95 mole peptide 1 and 1.05 mole peptide 2
[3] = tested on: Primary Human endothelial cells (HUVEC); assay: Endothelial cell migration assay; type: cell-based; settings: 10 micrograms per ml, 22 hours
HUVEC = assay: Endothelial tube formation assay; type: cell-based, human; settings: 10 micrograms per ml, 20 hours, combination peptide 1:peptide 2 1.10 mole:0.90 mole
Description: Positive control was vehicle only.

MRSA = assay: Methicillin Resistant Staphylococcus Aureus (MRSA) assay; settings: 10 micrograms per ml; 5×10^5 CFU/mL; combination for instance 0.95 mole peptide 1 and 1.05 mole peptide 2
HIV-1IIIB = assay: HIV-1 antiviral assay in CEM-SS cells
Interleukin-5 (IL-5) = assay: Th1/Th2 cytokine profiling assay: IL-5; type: cell-based, mouse; settings: 10 micrograms per ml; Ovalbumin-restimulated spleen cells, 72 hours

## Nc1nc(O)c2ncn(COC(CO)CO)c2n1 [Ganciclovir, reference compound]
HCMV strain AD169; positive control compound
  antiviral activity of positive control compound (HCMV): expected levels of antiviral activity

## Thr-Ala-Pro-Arg-Ser-Leu-Arg-Arg-Ser-Ser-Cys-Phe-Gly-Gly-Arg-Met-Asp-Arg-Ile-Gly-Ala-Gln-Ser-Gly-Leu-Gly-Cys-Asn-Ser-Phe-Arg-Tyr-OH (TAPRSLRRSSCFGGRMDRIGAQSGLGCNSFRY-OH; ends and bridges not checked) [Peptide 2]
[1]
  inhibition of HBV replication as compared to the virus control infection: did not inhibit
Interleukin-2 (IL-2); Ovalbumin-restimulated spleen cells, combination 0.95 mole peptide 1 and 1.05 mole peptide 2
  change of the production of IL-2 in murine spleen cells: did not significantly change
Interleukin-4 (IL-4)
  suppression of the production of IL-4 in murine spleen cells: 30.4%
Interleukin-4 (IL-4); combination 0.95 mole peptide 1 and 1.05 mole peptide 2
  induction of the production of IL-4: 59.7%
Interferon-γ (IFN-γ)
  change of the production of IFN-γ in murine spleen cells: did not significantly change
[2]
  change of the production of TNF-alpha in murine spleen cells: did not significantly change
[3]
  inhibition of the migration of human endothelial cells: 10%
HUVEC
  inhibition of the tube formation of human endothelial cells: 9%
HCMV strain AD169
  inhibition of HCMV plaque formation as compared to the virus control experiment: did not inhibit
MRSA
  inhibition of the growth of MRSA: 100%

## CC(C)(C)NC(=O)[C@@H]1CN(Cc2cccnc2)CCN1C[C@@H](O)C[C@@H](Cc1ccccc1)C(=O)N[C@H]1c2ccccc2C[C@H]1O [indinavir]
HIV-1IIIB
  antiviral activity of positive control compounds (HIV-1): expected levels of antiviral activity

## His-Ser-Asp-Gly-Thr-Phe-Thr-Ser-Glu-Leu-Ser-Arg-Leu-Arg-Glu-Gly-Ala-Arg-Leu-Gln-Arg-Leu-Leu-Gln-Gly-Leu-Val-NH2 [Peptide 1]
[1]
  inhibition of HBV replication as compared to the virus control infection: 27.6%
Interleukin-2 (IL-2); Ovalbumin-restimulated spleen cells of Balb/c mice
  decrease of the production of IL-2 in murine spleen cells: 77.7%
Interleukin-4 (IL-4)
  change of the production of IL-4 in murine spleen cells: did not significantly change
Interleukin-5 (IL-5)
  decrease of the production of IL-5: 45.8%
Interferon-γ (IFN-γ)
  change of the production of IFN-γ in murine spleen cells: did not significantly change
[2]
  change of the production of TNF-alpha in murine spleen cells: did not significantly change
[3]
  inhibition of the migration of human endothelial cells: 2%
HUVEC
  inhibition of the tube formation of human endothelial cells: 33%
HCMV strain AD169
  inhibition of HCMV plaque formation as compared to the virus control experiment: did not inhibit
MRSA
  inhibition of the growth of MRSA: 100%

## Cc1cn([C@H]2C[C@H](N=[N+]=[N-])[C@@H](CO)O2)c(=O)[nH]c1=O [AZT]
HIV-1IIIB
  antiviral activity of positive control compounds (HIV-1): expected levels of antiviral activity
